Data from the OligoGym collection.
Oligonucleotides are written 5' to 3', each unit as a sugar letter and its base; * is a phosphorothioate linkage, no mark a phosphodiester; rarer units and linkages stand in square brackets, end groups in braces. Plain capitals give the bases only. d = 2'-deoxy (DNA); r = 2'-OH (RNA)

Target: UBE2L6
Experiment: reporter assay of Huesken 2005
Conditions: siRNA
Note: test concentration or dose not given here.

Substance | normalised inhibition (eCFP-eYFP dual reporter)
sense rArArCrCrUrGrCrGrCrArUrCrArGrCrUrUrCrCdTdT / antisense rGrGrArArGrCrUrGrArUrGrCrGrCrArGrGrUrUdGdA | 51.6%
sense rCrUrUrCrCrCrGrCrCrGrGrArGrUrArUrCrCrGdTdT / antisense rCrGrGrArUrArCrUrCrCrGrGrCrGrGrGrArArGdCdT | 38.1%
sense rUrUrCrArArGrCrCrUrCrCrCrArUrGrArUrCrAdTdT / antisense rUrGrArUrCrArUrGrGrGrArGrGrCrUrUrGrArAdCdG | 71.2%
sense rGrArGrCrCrCrCrUrGrCrGrGrArUrGrGrArCrCdTdT / antisense rGrGrUrCrCrArUrCrCrGrCrArGrGrGrGrCrUrCdCdC | 55.9%
sense rArUrGrGrArCrCrUrCrGrCrUrGrArCrCrUrGrCdTdT / antisense rGrCrArGrGrUrCrArGrCrGrArGrGrUrCrCrArUdCdC | 43.8%
sense rUrCrArUrCrArGrCrArGrUrGrArGrArArCrUrGdTdT / antisense rCrArGrUrUrCrUrCrArCrUrGrCrUrGrArUrGrAdTdG | 61.3%
sense rArUrUrCrArCrArArCrCrArArGrArUrCrUrArCdTdT / antisense rGrUrArGrArUrCrUrUrGrGrUrUrGrUrGrArArUdTdT | 51%
sense rArArUrGrCrCrGrArArGrArGrUrUrCrArCrCrCdTdT / antisense rGrGrGrUrGrArArCrUrCrUrUrCrGrGrCrArUrUdCdT | 51.6%
sense rArCrCrCrGrArCrCrArArCrCrUrCrCrCrUrArCdTdT / antisense rGrUrArGrGrGrArGrGrUrUrGrGrUrCrGrGrGrUdAdG | 64%
sense rCrCrCrUrGrCrGrGrArUrGrGrArCrCrUrCrGrCdTdT / antisense rGrCrGrArGrGrUrCrCrArUrCrCrGrCrArGrGrGdGdC | 59.7%
sense rUrGrGrUrGrUrGrGrCrArCrGrCrUrCrUrCrCrUdTdT / antisense rArGrGrArGrArGrCrGrUrGrCrCrArCrArCrCrAdGdG | 89.5%
sense rCrUrGrArCrArCrArGrArArUrCrCrGrGrArGrCdTdT / antisense rGrCrUrCrCrGrGrArUrUrCrUrGrUrGrUrCrArGdCdA | 79.6%
sense rArCrUrUrGrCrCrArArGrUrCrCrUrGrGrArGrGdTdT / antisense rCrCrUrCrCrArGrGrArCrUrUrGrGrCrArArGrUdCdT | 31.8%
sense rCrArArArUrUrCrArCrArArCrCrArArGrArUrCdTdT / antisense rGrArUrCrUrUrGrGrUrUrGrUrGrArArUrUrUrGdAdT | 85.9%
sense rCrCrArCrCrCrCrArArCrGrUrGrGrArCrGrArGdTdT / antisense rCrUrCrGrUrCrCrArCrGrUrUrGrGrGrGrUrGrGdTdA | 67.6%
sense rUrCrArArGrCrCrUrCrCrCrArUrGrArUrCrArAdTdT / antisense rUrUrGrArUrCrArUrGrGrGrArGrGrCrUrUrGrAdAdC | 86.7%
sense rArCrArCrArGrArArUrCrCrGrGrArGrCrUrGrUdTdT / antisense rArCrArGrCrUrCrCrGrGrArUrUrCrUrGrUrGrUdCdA | 85.4%
sense rUrGrArCrArCrArGrArArUrCrCrGrGrArGrCrUdTdT / antisense rArGrCrUrCrCrGrGrArUrUrCrUrGrUrGrUrCrAdGdC | 54.8%
sense rGrArUrUrUrGrCrCrUrGrCrCrCrArUrCrArUrCdTdT / antisense rGrArUrGrArUrGrGrGrCrArGrGrCrArArArUrCdTdG | 71.3%
sense rGrUrUrCrArCrCrCrUrCrCrGrArUrUrCrGrGrAdTdT / antisense rUrCrCrGrArArUrCrGrGrArGrGrGrUrGrArArCdTdC | 61.1%
sense rArCrCrArArGrArUrCrUrArCrCrArCrCrCrCrAdTdT / antisense rUrGrGrGrGrUrGrGrUrArGrArUrCrUrUrGrGrUdTdG | 90.8%
sense rGrGrCrArCrGrCrUrCrUrCrCrUrCrCrUrArCrCdTdT / antisense rGrGrUrArGrGrArGrGrArGrArGrCrGrUrGrCrCdAdC | 62.5%
sense rGrGrArUrGrGrArCrCrUrCrGrCrUrGrArCrCrUdTdT / antisense rArGrGrUrCrArGrCrGrArGrGrUrCrCrArUrCrCdGdC | 80.5%
sense rArGrUrUrCrArCrCrCrUrCrCrGrArUrUrCrGrGdTdT / antisense rCrCrGrArArUrCrGrGrArGrGrGrUrGrArArCrUdCdT | 55.3%

Substance | normalised inhibition (eCFP-eYFP dual reporter)
sense rUrCrCrUrGrGrArGrGrCrCrCrUrCrArArUrGrUdTdT / antisense rArCrArUrUrGrArGrGrGrCrCrUrCrCrArGrGrAdCdT | 74.2%
sense rCrArUrCrArGrCrArGrUrGrArGrArArCrUrGrGdTdT / antisense rCrCrArGrUrUrCrUrCrArCrUrGrCrUrGrArUrGdAdT | 65.7%
sense rArUrCrArGrCrUrUrCrCrCrGrCrCrGrGrArGrUdTdT / antisense rArCrUrCrCrGrGrCrGrGrGrArArGrCrUrGrArUdGdC | 52.3%
sense rArUrCrArGrCrArGrUrGrArGrArArCrUrGrGrAdTdT / antisense rUrCrCrArGrUrUrCrUrCrArCrUrGrCrUrGrArUdGdA | 82.9%
sense rCrCrUrArCrCrCrGrArCrCrArArCrCrUrCrCrCdTdT / antisense rGrGrGrArGrGrUrUrGrGrUrCrGrGrGrUrArGrGdAdG | 55.6%
sense rCrCrUrGrUrCrCrArGrCrGrArUrGrArUrGrCrCdTdT / antisense rGrGrCrArUrCrArUrCrGrCrUrGrGrArCrArGrGdTdT | 77.6%
sense rCrGrGrArUrGrGrArCrCrUrCrGrCrUrGrArCrCdTdT / antisense rGrGrUrCrArGrCrGrArGrGrUrCrCrArUrCrCrGdCdA | 71.6%
sense rUrGrUrGrCrUrGrGrUrGrArArUrArGrArCrCrGdTdT / antisense rCrGrGrUrCrUrArUrUrCrArCrCrArGrCrArCrAdTdT | 59%
sense rUrCrCrUrCrCrUrArCrCrCrGrArCrCrArArCrCdTdT / antisense rGrGrUrUrGrGrUrCrGrGrGrUrArGrGrArGrGrAdGdA | 49.5%
sense rUrUrCrArGrArArArGrArArUrGrCrCrGrArArGdTdT / antisense rCrUrUrCrGrGrCrArUrUrCrUrUrUrCrUrGrArAdCdA | 57.7%
sense rCrUrUrGrCrArCrCrArArGrArCrUrUrGrCrCrAdTdT / antisense rUrGrGrCrArArGrUrCrUrUrGrGrUrGrCrArArGdGdC | 89.6%
sense rGrGrArGrUrArUrCrCrGrUrUrCrArArGrCrCrUdTdT / antisense rArGrGrCrUrUrGrArArCrGrGrArUrArCrUrCrCdGdG | 84.6%
sense rUrCrArArUrGrUrGrCrUrGrGrUrGrArArUrArGdTdT / antisense rCrUrArUrUrCrArCrCrArGrCrArCrArUrUrGrAdGdG | 69.1%
sense rGrGrArGrCrUrGrUrUrCrArGrArArArGrArArUdTdT / antisense rArUrUrCrUrUrUrCrUrGrArArCrArGrCrUrCrCdGdG | 108%
sense rCrUrGrGrArGrGrCrCrCrUrCrArArUrGrUrGrCdTdT / antisense rGrCrArCrArUrUrGrArGrGrGrCrCrUrCrCrArGdGdA | 48.2%
sense rGrUrGrGrCrArCrGrCrUrCrUrCrCrUrCrCrUrAdTdT / antisense rUrArGrGrArGrGrArGrArGrCrGrUrGrCrCrArCdAdC | 96.9%
sense rCrArGrCrArGrUrGrArGrArArCrUrGrGrArArGdTdT / antisense rCrUrUrCrCrArGrUrUrCrUrCrArCrUrGrCrUrGdAdT | 74.9%
sense rArGrUrArUrCrCrGrUrUrCrArArGrCrCrUrCrCdTdT / antisense rGrGrArGrGrCrUrUrGrArArCrGrGrArUrArCrUdCdC | 53.7%
sense rCrUrGrCrGrGrArArCrCrUrGrUrCrCrArGrCrGdTdT / antisense rCrGrCrUrGrGrArCrArGrGrUrUrCrCrGrCrArGdGdT | 76.1%
sense rCrCrCrArUrCrArUrCrArGrCrArGrUrGrArGrAdTdT / antisense rUrCrUrCrArCrUrGrCrUrGrArUrGrArUrGrGrGdCdA | 74%
sense rArArCrUrGrGrArArGrCrCrUrUrGrCrArCrCrAdTdT / antisense rUrGrGrUrGrCrArArGrGrCrUrUrCrCrArGrUrUdCdT | 77.8%
sense rUrUrCrCrCrGrCrCrGrGrArGrUrArUrCrCrGrUdTdT / antisense rArCrGrGrArUrArCrUrCrCrGrGrCrGrGrGrArAdGdC | 43%
sense rGrUrGrArArUrArGrArCrCrGrArArUrArUrCrAdTdT / antisense rUrGrArUrArUrUrCrGrGrUrCrUrArUrUrCrArCdCdA | 89.9%
sense rCrGrArUrGrArUrGrCrCrArArUrGrUrCrCrUrGdTdT / antisense rCrArGrGrArCrArUrUrGrGrCrArUrCrArUrCrGdCdT | 97.1%

Target: NOG
Experiment: reporter assay of Huesken 2005
Conditions: siRNA

Substance | normalised inhibition (eCFP-eYFP dual reporter)
sense rGrCrUrUrCrArGrUrArArGrCrGrCrUrCrGrUrGdTdT / antisense rCrArCrGrArGrCrGrCrUrUrArCrUrGrArArGrCdAdG | 84.7%
sense rUrGrCrUrGrUrArCrGrCrGrUrGrGrArArCrGrAdTdT / antisense rUrCrGrUrUrCrCrArCrGrCrGrUrArCrArGrCrAdCdG | 85.2%
sense rCrUrGrGrCrGrGrArGrCrUrGrGrArCrCrArGrCdTdT / antisense rGrCrUrGrGrUrCrCrArGrCrUrCrCrGrCrCrArGdGdT | 58.7%
sense rGrArGrCrUrGrGrArCrCrArGrCrUrGrCrUrGrCdTdT / antisense rGrCrArGrCrArGrCrUrGrGrUrCrCrArGrCrUrCdCdG | 71.8%
